Source: US20230255954A1, “INTERLEUKIN 33 (IL-33) INHIBITION FOR TREATMENT OF CANCER, FIBROSIS AND INFLAMMATION” (The General Hospital Corporation, priority 2020, published 2023)

Key:
[1] = test system: DMBA/TPA skin tumors in WT and K14-IL33tg,ST2KO mice; assay: DMBA/TPA skin carcinogenesis protocol with SB431542; format: in vivo, mouse
Procedure: For DMBA/DNFB carcinogenesis protocol (Ameri et al., 2019), four- to six-week-old male and female mice were shaved on their abdomen and sensitized to 50 μL 0.5% DNFB. Two days later, mice were re-sensitized to 50 μL 0.25% DNFB on the abdomen. Five days later, mice were treated with […] 7,12-dimethylbenz(a)anthracene (DMBA, Millipore Sigma, catalog no. D3254) in 200 μL acetone on their back skin. After a week, mice were challenged with 100 μL 0.25% DNFB on their back skin, which was continued three times per week for 30 weeks at the dosage that maintained mild erythematous dermatitis in WT mice. Skin rash and tumor development were monitored and recorded weekly over the duration of the study. For DMBA/TPA carcinogenesis protocol, mice were treated with 6 μg 12-O-tetradecanoylphorbol-13-acetate (TPA, Millipore Sigma, catalog no. P1585) in 200 μL acetone instead of DNFB in DMBA/DNFB protocol without abdominal sensitization.
(§1) To inhibit the TGF-β/SMAD signaling pathway (Mordasky Markell et al, 2010), mice were treated with 10 μM SB431542 (Millipore Sigma, catalog no. 301836-41-9) in 200 μL acetone or 200 μL acetone alone to their back skin twice a week. SB431542/acetone treatments were given in between TPA or DNFB doses.
(§2) Tissue samples were collected and fixed in 4% paraformaldehyde (Millipore Sigma, catalog no. P6148) overnight at 4° C. Next, tissues were dehydrated in ethanol, processed and embedded in paraffin. 5 μm sections paraffin-embedded tissues were placed on slides, deparaffinized and stained with H&E. For immunohistochemistry, antigen retrieval was performed in 500 μL of antigen unmasking solution (VECTOR Laboratories, Burlingame, Calif., catalog no. H3300) diluted in 50 mL water using Cuisinart pressure cooker for 20 min at high pressure. Slides were washed three times for three minutes each in 1×TBS with 0.025% Triton X-100. Sections were blocked with 1% bovine serum albumin (Thermo Fisher Scientific, catalog no. BP1600) and 5% goat serum (Millipore Sigma, catalog no. G9023) for 1 hour. Slides were stained overnight at 4° C. with a primary antibody diluted in TBS containing 1% BSA (Table A). The following day, slides were washed as above and incubated in 100 μL biotinylated secondary antibody (VECTOR Laboratories, catalog no. PK-6200) for 30 min. After washing, slides were incubated with 100 μL mixture of reagent A and B from VECTASTAIN Elite ABC universal kit Peroxidase (VECTOR Laboratories, catalog no. PK-6200) for 30 min. After washing, slides were incubated with 100 μL ImmPACT DAB chromogen stating (VECTOR Laboratories, catalog no. SK-4105) for a few minutes. Finally, slides were dehydrated in ethanol and xylene and mounted with a coverslip using 3 drops of mounting media. For immunofluorescence staining, rehydrated tissue sections were permeated with 1×PBS supplemented with 0.2% Triton X-100 for 5 min. Antigen retrieval was performed similar to immunohistochemistry. Slides were washed three times for three minutes each in 1×PBS with 0.1% TWEEN20. Sections were blocked with 1% bovine serum albumin and 5% goat serum for 1 hour. The slides were stained overnight at 4° C. with primary antibodies (Table A). The following day, slides were washed as above and incubated for two hours at room temperature with secondary antibodies conjugated to fluorochromes (Table A). Next, slides were incubated with 1:2000 DAPI (Thermo Fisher Scientific, catalog no. D3571) for five minutes at room temperature, then washed as above. Slides were mounted with Prolong Gold Antifade Reagent (Thermo Fisher Scientific, catalog no. P36930). The number of positive cells was counted in randomly selected high power field (HPF, 200× magnification) images in a blinded manner by a trained investigator. Clinical samples were reviewed by a pathologist.

[2] = test system: DNFB-treated WT and IL-33KO mice skin; assay: DNFB chronic skin inflammation with SB431542; format: in vivo, mouse; conditions: 22 days
Procedure: Four- to six-week-old male and female mice were shaved on their abdomen and sensitized to 50 μL 0.5% 1-Fluoro-2,4-dinitrobenzene (DNFB, Millipore Sigma, St. Louis, Mo., catalog no. 42085) dissolved in acetone plus olive oil at a 3:1 ratio (refer to as acetone). Two days after first sensitization, mice were re-sensitized to 50 μL 0.25% DNFB on their abdomen. After 5 days, mice were challenged with 100 μL 0.25% DNFB on their back skin, which was repeated three times per week for 22 days. The skin rash was monitored over the duration of the study.
as §1
as §2, with “Sections were blocked with 1% bovine serum albumin and 5% goat serum for 1 hour. The slides were stained overnight at 4° C. with primary antibodies (Table A). The following day, slides were washed as above and incubated for two hours at room temperature with secondary antibodies conjugated to fluorochromes (Table A). Next, slides were incubated with 1:2000 DAPI (Thermo Fisher Scientific, catalog no. D3571) for five minutes at room temperature, then washed as above. Slides were mounted with Prolong Gold Antifade Reagent (Thermo Fisher Scientific, catalog no. P36930).” left out, “Clinical samples were reviewed by a pathologist.” left out

[3] = test system: Pam212 cells; assay: Pam212 proliferation assay (CellTiter 96); format: cell-based, mouse; conditions: 10 μM SB431542 for 3 hours; to the same degree as knocking down IL-33
Procedure: Pam212 cells were transfected with siIl33 (QIAGEN, catalog no. SI00870443) or siCon (QIAGEN, catalog no. 1022076) using Lipofectamine RNAiMax Transfection reagent (Thermo Fisher Scientific, catalog no. 13778075) according to the manufacturer's instructions. The following day, cells were divided into 96 well plates with a serial dilution of cells. The next day, the cells were treated with 5 nM of TGF-β (Cell Signaling Technology, catalog no. 5231LF) or 10 μM of SB431542 for 3 hours. After incubation, the proliferation assay was performed by CellTiter 96 Non-radioactive Cell proliferation assay (Promega, Madison, Wis., catalog no. G4001) according to the manufacturer's instructions. O.D was recorded as the measure of cell proliferation in each well. Absorbance (O.D) reading is directly proportional to the cell proliferation in each well.

[4] = test system: Pam212 cells; assay: Ki67+ proliferating Pam212 cells; format: cell-based, mouse
[5] = DMBA/TPA-treated K14-IL33tg,ST2KO skin, vs acetone-treated controls
[6] = K14-IL33tg,ST2KO mice, DMBA/TPA, vs acetone-treated
[7] = WT mice, 30-week DMBA/TPA treatment

NC(=O)c1ccc(-c2nc(-c3ccc4c(c3)OCO4)c(-c3ccccn3)[nH]2)cc1 [SB431542]
apoptosis (cleaved caspase-3) ([1]; DMBA/TPA-treated K14-IL33tg,ST2KO skin): without impacting | number of Ki67+ epidermal keratinocytes [1, 5]: reduced | number of p-SMAD2/3+ epidermal keratinocytes [1, 5]: reduced | number of skin tumors [1, 6]: significantly fewer | tumor latency [1, 6]: markedly increased | skin tumor size ([1]; K14-IL33tg,ST2KO mice, DMBA/TPA, vs controls): smaller | endpoint tumor volumes [1, 7]: no significant impact | skin tumor onset [1, 7]: no significant impact | tumor numbers over time [1, 7]: no significant impact | epidermal hyperplasia ([2]; DNFB-treated IL-33KO mice): no impact | keratinocyte proliferation ([2]; DNFB-treated IL-33KO mice): no impact | keratinocyte proliferation ([2]; DNFB-treated WT mice): markedly decreased | epidermal hyperplasia ([2]; DNFB-treated WT mice, 10 μM SB431542 in 200 μL acetone twice a week): markedly decreased | Pam212 cell proliferation [3]: reduced | Ki67+ proliferating cells [4]: significantly reduced
